Source: US20080255134A1 (Artesian Therapeutics, Inc., priority 2004, published 2008)
Like-named read-outs stand apart in the source and are kept apart here.

Assays:
[1] = target: T1, human recombinant beta-2 receptors (Homo sapiens, UniProt P07550); test: β2-receptor radioligand binding, [125I] iodocyanopindolol, CHO-WT21 cells; conditions: at 100 nM
T1 construct: expressed in transfected cells; host or cells: CHO-WT21 cells
Method: (§1) Non-selective β-adrenergic and β1-adrenergic radioligand binding assays were performed using rat cortical membranes; β2-adrenergic receptor assays were performed using membranes isolated from CHO cells expressing human, recombinant b2-adrenergic receptor; non-selective α1-adrenergic receptor assays were performed using rat forebrain membranes; and PDE3 binding assays were performed on human platelets. Values in percent illustrate percent inhibition at 1000 nM concentration.

[2] = target: T2, PDE3 (Homo sapiens, UniProt Q14432); test: In vitro assay for cAMP PDE-3 inhibitory activity; assay type: biochemical; conditions: human platelet cyclic AMP phosphodiesterase, bound stated
T2 construct: from tissue; host or cells: human platelets
T2 sequence (Q14432 whole entry): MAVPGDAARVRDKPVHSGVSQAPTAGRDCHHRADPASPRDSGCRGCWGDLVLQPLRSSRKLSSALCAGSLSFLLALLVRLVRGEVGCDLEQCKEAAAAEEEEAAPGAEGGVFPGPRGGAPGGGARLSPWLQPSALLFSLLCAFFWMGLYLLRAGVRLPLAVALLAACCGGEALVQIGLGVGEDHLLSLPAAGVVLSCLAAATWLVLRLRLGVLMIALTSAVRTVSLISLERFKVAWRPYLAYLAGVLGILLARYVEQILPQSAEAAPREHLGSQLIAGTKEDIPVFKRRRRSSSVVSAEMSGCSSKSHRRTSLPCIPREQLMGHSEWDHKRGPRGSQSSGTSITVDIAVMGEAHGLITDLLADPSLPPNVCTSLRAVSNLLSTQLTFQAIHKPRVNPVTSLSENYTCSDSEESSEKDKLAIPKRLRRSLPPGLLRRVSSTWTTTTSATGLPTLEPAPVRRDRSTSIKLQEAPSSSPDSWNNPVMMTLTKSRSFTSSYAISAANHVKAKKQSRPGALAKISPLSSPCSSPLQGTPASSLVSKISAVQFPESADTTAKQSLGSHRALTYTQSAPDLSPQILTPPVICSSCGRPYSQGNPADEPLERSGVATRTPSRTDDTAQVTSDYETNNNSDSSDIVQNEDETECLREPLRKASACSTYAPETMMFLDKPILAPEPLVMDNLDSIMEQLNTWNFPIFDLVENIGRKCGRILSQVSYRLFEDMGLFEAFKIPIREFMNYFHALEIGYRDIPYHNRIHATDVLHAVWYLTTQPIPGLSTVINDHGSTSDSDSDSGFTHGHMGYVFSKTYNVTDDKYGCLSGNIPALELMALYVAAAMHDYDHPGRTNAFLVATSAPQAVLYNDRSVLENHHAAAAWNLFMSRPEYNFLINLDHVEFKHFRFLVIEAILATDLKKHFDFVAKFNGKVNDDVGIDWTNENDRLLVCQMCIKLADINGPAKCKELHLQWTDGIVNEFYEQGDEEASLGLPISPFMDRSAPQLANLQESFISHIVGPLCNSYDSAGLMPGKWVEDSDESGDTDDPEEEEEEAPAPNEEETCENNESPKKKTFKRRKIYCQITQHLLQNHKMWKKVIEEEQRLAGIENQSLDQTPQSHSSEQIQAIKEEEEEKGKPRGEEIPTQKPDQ
Method: Human platelet cyclic AMP phosphodiesterase was prepared according to the method of Alvarez et al., Mol. Pharmacol. 29: 554 (1986). The PDE incubation medium contained 10 mM Tris-HCl buffer, pH 7.7, 10 mM MgSO4, and 1 μM […] (0.2 μCi) in a total volume of 1.0 mL. Test compounds were dissolved in DMSO immediately prior to addition to the incubation medium, and the resulting mixture was allowed to stand for 10 minutes prior to the addition of enzyme. Following the addition of PDE, the contents were mixed and incubated for 10 minutes at 30° C. Three assays each were performed for each of five test compound concentrations, the mean of the determinations (n=3) at each concentration was plotted, and IC50 values were determined graphically.
as §1, with “The ability of Compounds 25 and 8c to inhibit PDE3 and β-adrenergic receptor activity was examined both in vitro and in vivo. […] Non-selective” for “Non-selective”

[3] = target: T3, human recombinant beta-1 receptors (Homo sapiens, UniProt P08588); test: β1-receptor radioligand binding, [125I] iodocyanopindolol, CHO-REX16 cells; conditions: at 100 nM
T3 construct: expressed in transfected cells; host or cells: CHO-REX16 cells
T3 sequence (P08588 whole entry): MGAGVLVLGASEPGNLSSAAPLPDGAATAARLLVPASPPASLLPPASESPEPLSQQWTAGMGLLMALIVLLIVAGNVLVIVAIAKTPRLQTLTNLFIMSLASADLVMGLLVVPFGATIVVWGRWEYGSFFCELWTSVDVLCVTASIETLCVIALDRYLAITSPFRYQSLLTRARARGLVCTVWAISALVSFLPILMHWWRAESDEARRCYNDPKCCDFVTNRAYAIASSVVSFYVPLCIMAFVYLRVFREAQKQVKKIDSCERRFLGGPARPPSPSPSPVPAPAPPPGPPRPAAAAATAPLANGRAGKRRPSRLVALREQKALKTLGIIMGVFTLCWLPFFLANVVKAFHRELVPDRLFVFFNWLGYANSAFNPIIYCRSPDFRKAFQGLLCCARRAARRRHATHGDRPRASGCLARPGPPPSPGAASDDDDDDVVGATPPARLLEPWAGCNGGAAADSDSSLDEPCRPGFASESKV
Method: […] receptor binding was measured in human recombinant beta-1 receptors expressed in CHO-REX16 cells, using [^125I] (-) iodocyanopindolol (2000 Ci/mmol) as the radioligand, as described in Kalaria et al., J. Neurochem. 53: 1772-81 (1998), and Minneman et al., Mol. Pharmacol. 16: 34-46 (1979).

[4] = target: T4, β1-adrenergic receptor (Rattus norvegicus, UniProt P18090); test: β1-adrenergic radioligand binding assay using rat cortical membranes; conditions: at 1000 nM concentration, read-out: β1-adrenergic percent inhibition
T4 construct: from tissue; host or cells: rat cortical membranes
T4 sequence (P18090 whole entry): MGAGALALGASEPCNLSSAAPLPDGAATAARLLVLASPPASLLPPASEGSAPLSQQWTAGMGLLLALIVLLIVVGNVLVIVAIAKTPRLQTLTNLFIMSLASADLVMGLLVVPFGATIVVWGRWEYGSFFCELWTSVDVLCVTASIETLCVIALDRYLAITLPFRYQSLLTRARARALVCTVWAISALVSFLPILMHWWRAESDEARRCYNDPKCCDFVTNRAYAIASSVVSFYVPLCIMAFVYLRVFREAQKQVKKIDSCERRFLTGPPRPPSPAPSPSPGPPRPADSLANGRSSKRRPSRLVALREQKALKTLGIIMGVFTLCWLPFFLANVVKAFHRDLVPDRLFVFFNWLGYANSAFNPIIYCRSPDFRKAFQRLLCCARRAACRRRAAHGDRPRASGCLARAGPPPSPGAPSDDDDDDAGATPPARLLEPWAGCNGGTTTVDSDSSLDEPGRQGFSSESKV
Method: as §1

[5] = system: White New Zealand male rabbits; test: In vivo β-adrenergic blockade, isoproterenol challenge (Protocol 1); design: species or system rabbit; conditions: for decrease of left ventricular contractility (% of isoproterenol effect): doses that completely diminished isoproterenol-dependent increase in heart rate: atenolol 1 mg/kg, carvedilol 0.3 mg/kg, Compound 8c 1 mg/kg, mean±SEM
Method: (§2) Studies were performed on White New Zealand male rabbits (2-3 kg weight). Animals were initially anesthetized with ketamine (50 mg/kg; IM) and xylazine (6 mg/kg, IM). Subsequently, animals were intubated (via tracheotomy; 3 mm tube) and ventilated with 2% isoflurane (mixed in 95% O2+5% CO2). Each rabbit was instrumented for LV pressure (3F Millar catheter) through right carotid artery, arterial pressure (3F catheter, Cook Instruments) through left femoral artery, which was connected to a fluid-filled pressure transducer (BD Instruments), and ECG. Both pressure transducers were zeroed against atmospheric pressure, and calibrated before each study using an analog manometer. Upon completion of instrumentation, isoflurane was reduced to 1.25%, and the animal was covered for maintenance of body core temperature. Arterial and LV blood pressures (LVP) and the ECG signals were simultaneously digitally recorded on a PC. The recording system (Gould Instruments) and the corresponding software (Ponema, Gould Instruments) facilitated detailed calculation of various parameters directly from all signals and record on a separate file with a 1 sec resolution. Upon completion of the study protocol, rabbits were euthenized by isoflurane overdose (5% for at least 1 minute) and cardiac arrest through IV infusion of 5 ml 3 molar potassium chloride.
(§3) Once the physiological variables were stable, effects of each drug on hemodynamics and ECG were determined based on two different protocols: 1) infusion of a compound of the present invention to determine the effects of the compound itself mainly on contractility, and other hemodynamic indices; and 2) infusion of a compound of the present invention while the system was challenged with 0.5 ug/kg isoproterenol to determine the beta-adrenergic antagonism properties of each tested compound.
(§4) White New Zealand male rabbits (2-3 kg) were anesthetized and ventilated (95% O2+5% CO2) with 1.25% isoflurane. Each animal was instrumented for LV pressure (Millar, through left carotid artery), arterial pressure (left femoral artery), infusion (jugular vein), and electrocardiogram. The animals were administered intravenously based on one of these protocols:
Protocol 1: β-adrenergic blockade (isoproterenol challenge).

[6] = system: White New Zealand male rabbits; test: In vivo hemodynamic effects of compounds administered alone (Protocol 2); design: species or system rabbit; conditions: for mean arterial pressure: doses that completely diminished isoproterenol-dependent increase in heart rate, Protocol 2, FIG. 15; for left ventricular contractility when administered alone: protocol 2, relative to control, FIGS. 2, 12
Method: as §2, §3, §4
Protocol 2: PDE3 inhibition (effects of compounds when administered alone).

[7] = system: α1-adrenergic receptor; test: Non-selective α1-adrenergic receptor assay using rat forebrain membranes; assay type: binding
Method: as §1, with “The ability of Compounds 25 and 8c to inhibit PDE3 and β-adrenergic receptor activity was examined both in vitro and in vivo. […] Non-selective” for “Non-selective”

[8] = system: naive anesthetized canines; test: Contractility in naive anesthetized canines (protocol 2); assay type: in vivo, canine; conditions: administered alone (protocol 2), FIG. 17
[9] = read-out: PDE IC50 inhibition values

T1 sequence (P07550 whole entry): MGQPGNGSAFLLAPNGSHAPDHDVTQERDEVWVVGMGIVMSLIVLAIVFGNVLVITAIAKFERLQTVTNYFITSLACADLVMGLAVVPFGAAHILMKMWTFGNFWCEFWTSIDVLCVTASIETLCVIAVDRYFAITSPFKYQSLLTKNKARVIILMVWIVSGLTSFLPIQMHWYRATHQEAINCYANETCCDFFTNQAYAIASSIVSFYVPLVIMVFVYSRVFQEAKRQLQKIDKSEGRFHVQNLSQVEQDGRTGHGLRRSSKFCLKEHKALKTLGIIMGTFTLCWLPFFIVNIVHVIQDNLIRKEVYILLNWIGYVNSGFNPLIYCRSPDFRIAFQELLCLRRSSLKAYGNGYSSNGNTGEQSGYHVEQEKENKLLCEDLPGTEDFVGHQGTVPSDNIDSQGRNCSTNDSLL

SMILES	inhibition at 0.1 µM [1]	IC50 ([2]; read-out: PDE3 inhibition IC50)	IC50 [2, 9]	inhibition at 0.1 µM [3]	further results
CC(C)(CNC(=O)COc1ccc(C2=NNC(=O)CC2)cc1Cl)NCC(O)COc1cccc2[nH]c3ccccc3c12 (centres unmarked) [Compound 49, N-{2-[3-(9H-carbazol-4-yloxy)-2-hydroxy-propylamino]-2-methyl-propyl}-2-[2-chloro-4-(6-oxo-1,4,5,6-tetrahydro-pyridazin-3-yl)-phenoxy]-acetamide]	> 25%	< 1000 nM	< 100 nM	> 25%	–
CC(C)NCC(O)COc1ccc(CC(N)=O)cc1 (centres unmarked) [Atenolol, reference compound]	–	–	–	–	inhibition at 1 µM [4]: 23%; decrease of left ventricular contractility (% of isoproterenol effect) [5]: 82±2%; mean arterial pressure [6]: decreased mean arterial pressure; left ventricular contractility when administered alone [6]: decreased contractility; α1-adrenergic IC50, nM [7]: inactive
COCCc1ccc(OC[C@@H](O)CNCCOc2ccc(C3=NNC(=O)CC3)cc2Cl)cc1 [Compound 41, 6-[3-Chloro-4-(3-{(S)-2-hydroxy-propylamino]-ethoxy}-phenyl)-4,5-dihydro-2H-pyridazin-3-one]	–	< 1000 nM	< 100 nM	> 25%	–
O=C1CCC(c2ccc(OCC(=O)N3CCC(NC[C@H](O)COc4ccccc4C(F)(F)F)CC3)c(Cl)c2)=NN1 [Compound 8g, 6-[3-chloro-4-(2-{4-[2-hydroxy-3-(2-trifluoromethyl-phenoxy)-propylamino]-piperidin-1-yl}-2-oxo-ethoxy)-phenyl]-4,5-dihydro-2H-pyridazin-3-one]	> 25%	< 1000 nM	< 100 nM	> 25%	–
COc1ccccc1OCCNCC(O)COc1cccc2[nH]c3ccccc3c12 (centres unmarked) [Carvedilol, reference compound]	–	–	–	–	contractility (LV+dP/dtmax) at ED50 ([5]; Compound 25 0.3 mg/kg, carvedilol 0.1 mg/kg, Protocol 1, FIG. 13): decreased this parameter; ED50 ([5]; Oryctolagus cuniculus, isoproterenol challenge (0.5 μg/kg), intravenous, read-out: ED50, dose that diminished isoproterenol-dependent increase in HR by 50%): 0.1 mg/kg; relaxation properties (Tau) at ED50 ([5]; compared to control, Protocol 1, FIG. 13): negative lusitropic effect; decrease of left ventricular contractility (% of isoproterenol effect) [5]: 82±7%; mean arterial pressure [6]: decreased mean arterial pressure; left ventricular contractility when administered alone [6]: decreased contractility; contractility in naive anesthetized canines [8]: decreased this parameter at the higher doses; IC50 [7]: […]
Cc1ccc(OC[C@@H](O)CNC2CCN(C(=O)COc3ccc(C4=NNC(=O)CC4)cc3Cl)CC2)cc1 [Compound 8p, 6-(3-chloro-4-{2-[4-(2-hydroxy-3-p-tolyloxy-propylamino)-piperidin-1-yl]-2-oxo-ethoxy}-phenyl)-4,5-dihydro-2H-pyridazin-3-one]	> 25%	< 1000 nM	–	–	–
O=C1CCC(c2ccc(OCC(=O)N3CCC(NC[C@H](O)COc4ccccc4Br)CC3)c(Cl)c2)=NN1 [Compound 8d, 6-[4-(2-{4-[3-(2-bromo-phenoxy)-2-hydroxy-propylamino]-piperidin-1-yl}-2-oxo-ethoxy)-3-chloro-phenyl]-4,5-dihydro-2H-pyridazin-3-one]	> 25%	< 1000 nM	< 100 nM	> 25%	–
COCCc1ccc(OC[C@@H](O)CNCCCCOc2ccc(C3=NNC(=O)CC3)cc2Cl)cc1 [Compound 44]	–	< 1000 nM	–	> 25%	–
COCCc1ccc(OCC(O)CNC2CCN(C(=O)COc3ccc(C4=NNC(=O)CC4)cc3Cl)CC2)cc1 (racemic) [Compound 13, 6-{3-Chloro-4-[2-(4-{2-hydroxy-3-[4-(2-methoxy-ethyl)-phenoxy]-propylamino}-piperidin-1-yl)-2-oxo-ethoxy]-phenyl}-4,5-dihydro-2H-pyridazin-3-one]	–	< 1000 nM	–	–	–
O=C1CCC(c2ccc(OCC(=O)N3CCC(NC[C@H](O)COc4cccc5[nH]c6ccccc6c45)CC3)c(Cl)c2)=NN1 [Compound 17, 6-[4-(2-{4-[(S)-3-(9H-Carbazol-4-yloxy)-2-hydroxy-propylamino]-piperidin-1-yl}-2-oxo-ethoxy)-3-chloro-phenyl]-4,5-dihydro-2H-pyridazin-3-one]	–	< 1000 nM	–	–	–
COc1ccccc1OC[C@@H](O)CNC1CCN(C(=O)COc2ccc(C3=NNC(=O)CC3)cc2Cl)CC1 [Compound 8h, 6-[3-chloro-4-(2-{4-[2-hydroxy-3-(2-methoxy-phenoxy)-propylamino]-piperidin-1-yl}-2-oxo-ethoxy)-phenyl]-4,5-dihydro-2H-pyridazin-3-one]	–	< 1000 nM	–	–	–
